Measurements: article PMC12021911, “Comparative evaluation of antimicrobial peptides: effect on formation, metabolic activity and viability of Klebsiella pneumoniae biofilms” (Frontiers in Microbiology, 2025)
Converted amounts (≈) assume the structure as drawn. Read-outs that look alike come from different tables or passages of the source.

Experiments:
Assay type in all cases: cell-based, Klebsiella pneumoniae
K. pneumoniae IMT40061 [1] = test: microbe, parasite or virus in culture
Protocol: (§1) Three different strains of K. pneumoniae were investigated in this study which were originally isolated from a human, a pig and a dog (Table 2) and characterized in previous studies ([Krieger et al., 2021]; [Krieger et al., 2022]). Minimum inhibitory concentration (MIC) values were determined according to EUCAST guidelines by microdilution test and are shown in Supplementary Table S1.
(§2) Table S1 Minimum inhibitory concentration (MIC) values of the three K. pneumoniae strains,
(§3) determined according to EUCAST guidelines by microdilution test.
(§4) MIC [µg/mL] of indicated antibiotics

[2] = test system: K. pneumoniae 42KC-108224-1; test: microbe, parasite or virus in culture
Protocol: as §1, §2, §3, §4

K. pneumoniae 17349 [3] = test: microbe, parasite or virus in culture
Protocol: as §1, §2, §3, §4

[4] = test system: all three K. pneumoniae strains; test: crystal violet assay, biofilm formation, statements on all three strains; conditions: for biofilm mass, % of the untreated control: all three strains, concentration not given
Protocol: (§5) To quantify biofilm formation, the crystal violet assay was done as described previously ([Sager et al., 2015]). Specifically, bacteria were grown in 10 mL BHI broth for 18 h at 37°C on a shaking platform (120 rpm). Subsequently 100 μL of a 1:100 dilution of this overnight culture in BHI was transferred to 96-well plates and incubated for 24 h at 37°C. Wells with BHI broth only were used as blank. Five replicates were investigated per strain. After incubation the suspension was discarded, plates were washed three times with tap water and air-dried. Subsequently, 100 μL of 1% crystal violet (T123.1, Th. Geyer GmbH & Co. KG, Renningen, Germany) in distilled water was added to each well and incubated for 15 min at room temperature before rinsing the plates four times with tap water and air-drying them again. One hundred μL of 99% ethanol were added to each well for 15 min at room temperature to dissolve the remaining crystal violet. Subsequently, the optical density at 540 nm (OD540) was measured using the BioTek Synergy H1 microplate reader to quantify biofilm mass remaining in the wells. OD values of the blank were subtracted from all the samples. Each experiment was conducted three times.
(§6) To determine the effect of the AMPs on biofilm formation of K. pneumoniae, a standardized bacterial suspension and serial dilutions of antimicrobial agents were incubated together as conducted for determination of planktonic growth. After incubation the crystal violet assay was performed as described above. The percentage of biofilm formation was calculated based on the growth control. The experiment was conducted at least three times.

[5] = test system: K. pneumoniae 42KC-108224-1; test: fluorescence assay on mature biofilms (SYTO 9 / propidium iodide); conditions: 24 h treatment of mature biofilm; strongest reduction, concentration not given
Protocol: The proportion of living and dead bacteria was determined using the fluorescence assay FilmTracer™ LIVE/DEAD biofilm viability kit (L10316, Life Technologies GmbH, Darmstadt, Germany). A bacterial count of 2 × 10^7 CFU/mL was inoculated in 50% BHI broth, 100 μL were added to a 96-well plate in duplicate and plates were incubated for 22 h at 37°C. Wells containing only BHI broth were used as blank. After incubation, the supernatant was discarded and plates were washed three times with sterile PBS. […] After incubation for 24 h at 37°C and washing three times with sterile PBS, 50 μL filter-sterilized water containing 0.15 μL each of SYTO™ 9 stain and propidium iodide stain was added to each well. Plates were incubated for 20 min at room temperature in the dark. The staining solution was discarded and the plates were washed three times with sterile PBS. The fluorescence intensity of the SYTO™ 9 stain (λex = 470 nm, λem = 500 nm) and the propidium iodide stain (λex = 490 nm, λem = 635 nm) were measured on a BioTek Synergy H1 microplate reader and corrected for the blank values. The percentage of fluorescence intensity was calculated based on the negative control. The SYTO™ 9/propidium iodide ratio was calculated. The experiment was conducted at least three times.

K. pneumoniae IMT40061 [6] = test: crystal violet assay, biofilm formation upon AMP treatment; conditions: 16 μg/mL; 22 h, 37°C, 50% BHI; mean, n ≥ 3
Protocol: as §5, §6

[7] = test system: K. pneumoniae 42KC-108224-1; test: as above; conditions: for biofilm mass (crystal violet), percentage of the growth control: 16 μg/mL, 22 h, 37°C, 50% BHI, mean, n ≥ 3; for biofilm formation inhibited to: concentration not given
Protocol: as §5, §6

K. pneumoniae 17349 [8] = test: as above; conditions: 22 h, 37°C, 50% BHI, mean, n ≥ 3
Protocol: as §5, §6

K. pneumoniae 17349 [9] = test: resazurin assay, metabolic activity of biofilm; conditions: 16 μg/mL; 22 h co-incubation, 37°C, 50% BHI; n ≥ 3
Protocol: Biofilm viability was quantified using the resazurin assay as previously described ([Fontoura et al., 2023]) with minor modifications. A standardized bacterial suspension and serial dilutions of antimicrobial agents were incubated together as conducted for determination of planktonic growth and biofilm formation. After incubation, the bacterial suspension was discarded and plates were washed three times with sterile PBS. One hundred microliters of sterile PBS containing 2 μL of resazurin (6.75 mg/mL, in sterile PBS; R7017-1G, Merck KGaA, Darmstadt, Germany) were added per well. After an incubation of 3–5 h at 37°C fluorescence intensity was measured with an excitation wavelength (λex) of 528 nm and an emission wavelength (λem) of 645 nm by BioTek Synergy H1 microplate reader. Measured values of the blank were subtracted from all the samples. The percentage of metabolic activity was calculated based on the growth control. The experiment was conducted at least three times.

K. pneumoniae 17349 [10] = test: fluorescence assay on mature biofilms (SYTO 9 / propidium iodide); conditions: 24 h treatment of mature biofilm; concentration not given
[11] = Klebsiella pneumoniae, IMT40061, EUCAST guidelines, microdilution test, read-out: MIC
[12] = Klebsiella pneumoniae, 42KC1082241
[13] = Klebsiella pneumoniae, 42KC1082241, EUCAST guidelines, microdilution test, read-out: MIC
[14] = Klebsiella pneumoniae, 17349, EUCAST guidelines, microdilution test, read-out: MIC
[15] = EUCAST guidelines, microdilution test

C[C@H]1COc2c(N3CCN(C)CC3)c(F)cc3c(=O)c(C(=O)O)cn1c23 [Levofloxacin]
MIC (K. pneumoniae IMT40061 [1]; [11]): > 8 µg/mL | MIC [2, 12]: < 0.0625 µg/mL | MIC (K. pneumoniae 17349 [3]; Klebsiella pneumoniae, 17349): < 0.0625 µg/mL

C[C@@H](O)[C@H]1C(=O)N2C(C(=O)O)=C(S[C@@H]3CN[C@H](C(=O)N(C)C)C3)[C@H](C)[C@H]12 [Meropenem]
MIC (K. pneumoniae IMT40061 [1]; Klebsiella pneumoniae, IMT40061): < 0.125 µg/mL | MIC [2, 12]: < 0.125 µg/mL | MIC (K. pneumoniae 17349 [3]; Klebsiella pneumoniae, 17349): < 0.125 µg/mL

COc1c(N2C[C@@H]3CCCN[C@@H]3C2)c(F)cc2c(=O)c(C(=O)O)cn(C3CC3)c12 [Moxifloxacin]
MIC (K. pneumoniae IMT40061 [1]; [11]): > 4 µg/mL | MIC [2, 13]: 0.0625 µg/mL (≈ 0.156 µM) | MIC (K. pneumoniae 17349 [3]; [14]): 0.25 µg/mL (≈ 0.623 µM)

CCN1CCN(C(=O)N[C@@H](C(=O)N[C@@H]2C(=O)N3[C@@H]2SC(C)(C)[C@@H]3C(=O)O)c2ccccc2)C(=O)C1=O [Piperacillin]
MIC (K. pneumoniae IMT40061 [1]; [11]): > 64 µg/mL | MIC [2, 13]: 4 µg/mL (≈ 7.73 µM) | MIC (K. pneumoniae 17349 [3]; [14]): 2 µg/mL (≈ 3.86 µM)

NC[C@H]1O[C@H](O[C@H]2[C@H](O)[C@@H](O[C@H]3O[C@H](CO)[C@@H](O)[C@H](N)[C@H]3O)[C@H](N)C[C@@H]2N)[C@H](N)C[C@@H]1O [Tobramycin]
MIC (K. pneumoniae IMT40061 [1]; [11]): 4 µg/mL (≈ 8.56 µM) | MIC [2, 13]: 0.25 µg/mL (≈ 0.535 µM) | MIC (K. pneumoniae 17349 [3]; [14]): < 0.125 µg/mL

Ampicillin/Sulbactam
MIC (K. pneumoniae IMT40061 [1]; [15]): > 32/4 | MIC [2, 15]: 8/4 | MIC (K. pneumoniae 17349 [3]; [15]): 1/4

GIINTLQKYYCRVRGGRCAVLSCLPKEEQIGKCSTRGRKCCRRKK [hbD3, Human defensin, purchased from PeptaNova GmbH]
biofilm mass, % of the untreated control [4]: less than 40% | biofilm mass reduced to ([4]; concentration and strain not given): ≤ 28%

KRFRIRVRV-NH2 [compound 1037, Synthetic antimicrobial peptide]
viable biofilm mass (SYTO™ 9) [5]: 43% | biofilm mass (crystal violet), percentage of the growth control (K. pneumoniae IMT40061 [6]): 67% | biofilm mass (crystal violet), percentage of the growth control [7]: 53%

LLGDFFRKSKEKIGKEFKRIVQRIKDFLRNLVPRTES-OH [LL-37, Human cathelicidin, purchased from GENAXXON bioscience GmbH]
biofilm mass (crystal violet), percentage of the growth control (K. pneumoniae 17349 [8]; 0.5 μg/mL): 140% | biofilm mass (crystal violet), percentage of the growth control (K. pneumoniae 17349 [8]; 16 μg/mL): 13% | metabolic activity of the biofilm (resazurin), percentage of the growth control (K. pneumoniae 17349 [9]): 30% | biofilm mass, % of the untreated control [4]: less than 40%

Piperacillin/Tazobactam
MIC (K. pneumoniae IMT40061 [1]; [15]): > 64/4 | MIC [2, 15]: 1/4 | MIC (K. pneumoniae 17349 [3]; [15]): 1/4

VDKPPYLPRPRPPROIYNO-NH2 [Onc72, Insect-derived proline-rich AMP, derivate of Oncopeltus antibacterial peptide 4]
viable biofilm mass (SYTO™ 9) [5]: 51% | biofilm mass (crystal violet), percentage of the growth control [7]: 36% | biofilm formation inhibited to [7]: 36%

VDKPPYLPRPRPPRrIYNr-NH2 [Onc112, Insect-derived proline-rich AMP, derivate of Oncopeltus antibacterial peptide 4]
viable biofilm mass (SYTO™ 9) [5]: 55% | biofilm mass (crystal violet), percentage of the growth control [7]: 26% | biofilm formation inhibited to [7]: 26%

VRLIVAVRIWRR-NH2 [compound 1018, Synthetic antimicrobial peptide]
viable biofilm mass (SYTO™ 9) [5]: less than 30% | viable biofilm mass (SYTO™ 9) (K. pneumoniae 17349 [10]): less than 30% | biofilm mass (crystal violet), percentage of the growth control (K. pneumoniae IMT40061 [6]): 61% | biofilm mass (crystal violet), percentage of the growth control [7]: 54%
